The source of these data is patent US11053300B2, “Membrane span-kinase fusion protein and the uses thereof” (VIB VZW, priority 2012, dated 2021).

Assay [1] addresses T1, human somatostatin receptor 2 (SSTR2) (Homo sapiens, UniProt P30874).
T1 construct: expressed in transfected cells; host or cells: HEK293-T
Kind of assay: Ligand-dependent SSTR2-ARRB2 interaction, Tyk2(C)/gp130 fusion STAT3-luciferase reporter assay. The format is cell-based. To be noted: for effect of antagonist on SSTR2-ARRB2 interaction signal: 1 μM somatostatin, 0.05 or 0.5 μM CYN154806, 0.1 or 1 μM losartan or telmisartan, FIG. 4 transfection b; for effect of antagonist on SSTR2-ARRB2 interaction signal, dose-response: 10 μM somatostatin, antagonist 10^-13 M up to 10^-6 M, FIG. 5A.
Description: (§1) The membrane span protein (X) is fused to the C-terminal region of Tyk2 comprising the kinase domain, whereas the polypeptide interacting with the membrane span protein (Y) is fused to a fragment of gp130 which contains phosphorylation sites. When membrane span protein X and the polypeptide Y interact, the Tyk2 kinase domain phosphorylates the phosphorylation sites of gp130. STAT3 transcription factors are recruited to these phosphorylated sites and are in turn phosphorylated by the Tyk2 kinase domain, which results in their activation. Dimers of activated STAT3 transcription factors are able to bind the specific rPAPI promoter, which drives the expression of a firefly luciferase reporter gene. The activity of this reporter gene is measured as light production in a luciferase detection assay using a luminometer.
(§2) The fold induction for each sample was calculated as the ratio of the measured luciferase activity relative to the luciferase activity for the untreated sample of the same transfection.
The assay was further optimized by transferring the Tyk2(C) fusion construct into another vector system (pSVSport) and testing the resulting constructs in a similar experiment as described above. The following combinations of plasmids were transfected (500 ng of the Tyk2(C) fusion construct, 250 ng of the gp130 fusion construct and 50 ng of the luciferase reporter construct) according to the methods described above: […]

For assay [2], the target named is T2, human angiotensin receptor 1 (AGTR1) (Homo sapiens, UniProt P30556).
T2 construct: expressed in transfected cells; host or cells: HEK293-T
T2 sequence (P30556 with tags, fused parts or gaps): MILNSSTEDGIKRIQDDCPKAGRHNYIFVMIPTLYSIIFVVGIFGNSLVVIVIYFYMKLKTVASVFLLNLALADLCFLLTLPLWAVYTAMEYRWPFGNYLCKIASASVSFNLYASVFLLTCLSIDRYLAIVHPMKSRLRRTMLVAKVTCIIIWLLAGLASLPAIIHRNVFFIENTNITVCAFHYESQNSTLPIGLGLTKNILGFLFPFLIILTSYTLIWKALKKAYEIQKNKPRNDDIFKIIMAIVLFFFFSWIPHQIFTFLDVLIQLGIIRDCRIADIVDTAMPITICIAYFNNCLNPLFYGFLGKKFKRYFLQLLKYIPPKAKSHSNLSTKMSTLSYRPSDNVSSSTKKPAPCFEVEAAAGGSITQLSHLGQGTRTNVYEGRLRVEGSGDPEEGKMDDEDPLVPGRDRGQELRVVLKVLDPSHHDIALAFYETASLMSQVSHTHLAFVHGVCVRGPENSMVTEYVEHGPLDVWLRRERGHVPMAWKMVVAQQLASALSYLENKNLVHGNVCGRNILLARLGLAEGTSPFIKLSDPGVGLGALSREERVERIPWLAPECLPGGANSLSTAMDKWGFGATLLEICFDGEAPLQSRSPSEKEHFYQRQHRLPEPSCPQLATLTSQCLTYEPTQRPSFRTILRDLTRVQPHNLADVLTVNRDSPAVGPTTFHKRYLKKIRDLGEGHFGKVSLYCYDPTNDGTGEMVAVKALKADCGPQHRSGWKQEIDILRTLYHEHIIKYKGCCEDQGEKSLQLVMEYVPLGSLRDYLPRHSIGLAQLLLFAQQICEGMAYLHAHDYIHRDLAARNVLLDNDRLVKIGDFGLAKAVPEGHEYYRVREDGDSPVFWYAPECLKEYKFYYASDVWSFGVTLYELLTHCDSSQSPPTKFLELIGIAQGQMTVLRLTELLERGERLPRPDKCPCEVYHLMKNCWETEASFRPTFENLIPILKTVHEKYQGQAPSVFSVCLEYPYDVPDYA
Description: Ligand-dependent AGTR1-ARRB2 interaction, Tyk2(C)/gp130 fusion STAT3-luciferase reporter assay. The format is cell-based. Particulars: 10 μM angiotensin II; for effect of antagonist on AGTR1-ARRB2 interaction signal: 0.05 or 0.5 μM CYN154806, 0.1 or 1 μM losartan or telmisartan, FIG. 4 transfection d; for effect of antagonist on AGTR1-ARRB2 interaction signal, dose-response: antagonist 10^-13 M up to 10^-6 M.
Description: as §1
Transfections were carried out using a standard calcium phosphate method. HEK293-T cells were seeded in black tissue-culture treated 96-well plates at 10.000 cells/well in 100 μl culture medium (DMEM supplemented with 10% FCS). Twenty-four hours later, plasmid DNA mixes were prepared that contained plasmids encoding fusion proteins with the first and second interacting proteins and reporter plasmids. The DNA was supplemented with 5 μl 2.5M CaCl2) and double distilled water to a final volume of 50 μl. This mixture was added drop wise to 50 μl 2×HeBS buffer (280 mM NaCl, 1.5 mM Na2HPO4, 50 mM Hepes; pH 7.05) while vigorously vortexing. After incubation at room temperature for 15 min. to allow DNA precipitates to form, the solution was added to the cells at 10 μl/well. Cells were incubated at 37° C., 8% CO2. Twenty-four hours after transfection, cells were treated with the indicated amounts of ligand, either alone or combined with the indicated amount of antagonist. In the case of Irestatin 9389, cells were pre-treated with the antagonist before adding vehicle (DMSO) or tunicamycin. Another twenty-four hours later, luciferase activity was measured using the Luciferase Assay System kit (Promega) on a TopCount luminometer (Perkin-Elmer). Each transfection was done in triplicate and the average of the luciferase activity readings was used in the calculations.
as §2
Cells were transfected with the following combinations of plasmids (250 ng of the Tyk2(C) fusion construct, 250 ng of the gp130 fusion construct and 50 ng of the luciferase reporter construct) according to the methods described above:
Cells were transfected with 125 ng of the pMet7-SSTR2-Tyk2(C)−HA or pMet7-AGTR1-Tyk2(C)−HA fusion construct, 250 ng of the pMG2-ARRB2 gp130 fusion construct and 50 ng of the pXP2d2-rPAPI-luciferase reporter plasmid, according to the methods described above.

For assay [3], the target named is T3, ERN1 (Homo sapiens, UniProt O75460). Description: ERN1 dimerization, ERN1-Tyk2(C)/ERN1-gp130 luciferase reporter assay. Format: cell-based. Also noted: Flag (N); expressed in transfected cells; host or cells: HEK293-T. On the procedure:
Transfections were carried out using a standard calcium phosphate method. HEK293-T cells were seeded in black tissue-culture treated 96-well plates at 10.000 cells/well in 100 μl culture medium (DMEM supplemented with 10% FCS). Twenty-four hours later, plasmid DNA mixes were prepared that contained plasmids encoding fusion proteins with the first and second interacting proteins and reporter plasmids. The DNA was supplemented with 5 μl 2.5M CaCl2) and double distilled water to a final volume of 50 μl. This mixture was added drop wise to 50 μl 2×HeBS buffer (280 mM NaCl, 1.5 mM Na2HPO4, 50 mM Hepes; pH 7.05) while vigorously vortexing. After incubation at room temperature for 15 min. to allow DNA precipitates to form, the solution was added to the cells at 10 μl/well. Cells were incubated at 37° C., 8% CO2. Twenty-four hours after transfection, cells were treated with the indicated amounts of ligand, either alone or combined with the indicated amount of antagonist. […] Another twenty-four hours later, luciferase activity was measured using the Luciferase Assay System kit (Promega) on a TopCount luminometer (Perkin-Elmer). Each transfection was done in triplicate and the average of the luciferase activity readings was used in the calculations.
Tunicamycin (Sigma T7765; 2 mg/ml stock in DMSO) was diluted in culture medium and added to the cells 24 h prior to luciferase signal read-out. […]
Target sequence in this assay (O75460 with tags, fused parts or gaps): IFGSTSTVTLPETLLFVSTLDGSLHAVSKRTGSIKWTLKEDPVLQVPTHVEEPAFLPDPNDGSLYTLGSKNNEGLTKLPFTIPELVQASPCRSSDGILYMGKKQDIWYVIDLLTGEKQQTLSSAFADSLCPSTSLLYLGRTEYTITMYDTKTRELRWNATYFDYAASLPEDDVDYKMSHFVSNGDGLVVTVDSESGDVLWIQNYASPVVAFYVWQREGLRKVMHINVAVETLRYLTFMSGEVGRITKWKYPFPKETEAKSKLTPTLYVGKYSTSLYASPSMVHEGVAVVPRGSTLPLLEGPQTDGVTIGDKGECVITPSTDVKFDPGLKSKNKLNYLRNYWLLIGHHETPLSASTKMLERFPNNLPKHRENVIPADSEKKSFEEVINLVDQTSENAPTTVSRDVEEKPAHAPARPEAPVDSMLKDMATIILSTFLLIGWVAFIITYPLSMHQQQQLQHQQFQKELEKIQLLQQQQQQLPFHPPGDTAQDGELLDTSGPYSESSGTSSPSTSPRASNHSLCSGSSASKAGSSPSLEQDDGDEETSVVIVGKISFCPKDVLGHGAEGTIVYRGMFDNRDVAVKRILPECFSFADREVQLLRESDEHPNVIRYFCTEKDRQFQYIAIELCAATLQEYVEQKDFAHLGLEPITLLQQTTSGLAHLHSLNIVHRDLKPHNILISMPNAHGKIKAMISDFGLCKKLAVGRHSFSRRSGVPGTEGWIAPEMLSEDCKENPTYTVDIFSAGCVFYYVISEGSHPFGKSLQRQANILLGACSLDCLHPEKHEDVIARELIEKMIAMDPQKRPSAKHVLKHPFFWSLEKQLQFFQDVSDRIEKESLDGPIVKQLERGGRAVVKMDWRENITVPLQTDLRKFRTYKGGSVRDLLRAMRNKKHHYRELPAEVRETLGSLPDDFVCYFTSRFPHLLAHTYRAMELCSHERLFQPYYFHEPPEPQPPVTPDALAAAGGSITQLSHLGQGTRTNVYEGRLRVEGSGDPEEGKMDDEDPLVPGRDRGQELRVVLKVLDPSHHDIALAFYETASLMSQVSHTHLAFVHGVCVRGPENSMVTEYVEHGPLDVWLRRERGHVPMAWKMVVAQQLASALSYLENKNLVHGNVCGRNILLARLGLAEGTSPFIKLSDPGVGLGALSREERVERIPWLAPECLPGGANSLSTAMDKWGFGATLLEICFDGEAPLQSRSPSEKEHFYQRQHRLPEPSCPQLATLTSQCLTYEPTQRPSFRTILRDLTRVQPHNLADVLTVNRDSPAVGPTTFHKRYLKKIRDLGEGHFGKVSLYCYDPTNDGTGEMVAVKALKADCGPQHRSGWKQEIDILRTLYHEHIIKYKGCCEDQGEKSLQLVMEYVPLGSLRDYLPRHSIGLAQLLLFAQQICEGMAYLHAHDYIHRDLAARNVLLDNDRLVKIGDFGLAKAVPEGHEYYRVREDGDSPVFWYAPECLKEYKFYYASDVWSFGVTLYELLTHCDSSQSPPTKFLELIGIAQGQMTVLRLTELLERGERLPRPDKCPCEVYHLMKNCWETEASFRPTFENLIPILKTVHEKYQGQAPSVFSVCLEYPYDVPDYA

The target of assay [4] is T3, ERN1. To be noted: reported, Feldman and Koong, 2007; cited from earlier work.
Target sequence in this assay (O75460 19-977, species assumed): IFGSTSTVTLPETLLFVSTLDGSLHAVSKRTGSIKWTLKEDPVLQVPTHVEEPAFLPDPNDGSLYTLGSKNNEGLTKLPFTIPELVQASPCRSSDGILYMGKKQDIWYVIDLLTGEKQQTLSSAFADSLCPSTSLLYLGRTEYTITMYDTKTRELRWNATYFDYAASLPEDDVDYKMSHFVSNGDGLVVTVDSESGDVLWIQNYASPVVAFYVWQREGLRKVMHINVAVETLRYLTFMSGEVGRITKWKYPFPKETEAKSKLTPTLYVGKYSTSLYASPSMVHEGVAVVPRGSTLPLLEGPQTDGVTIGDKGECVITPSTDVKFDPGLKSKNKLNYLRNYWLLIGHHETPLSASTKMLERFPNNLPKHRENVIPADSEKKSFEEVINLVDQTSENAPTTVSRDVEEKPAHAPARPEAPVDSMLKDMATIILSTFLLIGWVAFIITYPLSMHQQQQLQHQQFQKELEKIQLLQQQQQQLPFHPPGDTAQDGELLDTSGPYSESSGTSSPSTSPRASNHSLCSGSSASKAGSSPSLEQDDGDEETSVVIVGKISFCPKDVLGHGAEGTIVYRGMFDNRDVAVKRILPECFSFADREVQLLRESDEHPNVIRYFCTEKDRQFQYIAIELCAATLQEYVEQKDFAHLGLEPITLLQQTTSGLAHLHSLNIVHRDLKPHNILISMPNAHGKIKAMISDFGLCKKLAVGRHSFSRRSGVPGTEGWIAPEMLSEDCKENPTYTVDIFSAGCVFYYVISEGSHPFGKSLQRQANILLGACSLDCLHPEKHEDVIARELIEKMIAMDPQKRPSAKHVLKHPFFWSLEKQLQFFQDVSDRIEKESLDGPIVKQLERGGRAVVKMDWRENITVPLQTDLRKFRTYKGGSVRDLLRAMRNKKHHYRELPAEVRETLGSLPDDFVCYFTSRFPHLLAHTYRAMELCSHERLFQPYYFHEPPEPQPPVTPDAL

T1 sequence (P30874 with tags, fused parts or gaps): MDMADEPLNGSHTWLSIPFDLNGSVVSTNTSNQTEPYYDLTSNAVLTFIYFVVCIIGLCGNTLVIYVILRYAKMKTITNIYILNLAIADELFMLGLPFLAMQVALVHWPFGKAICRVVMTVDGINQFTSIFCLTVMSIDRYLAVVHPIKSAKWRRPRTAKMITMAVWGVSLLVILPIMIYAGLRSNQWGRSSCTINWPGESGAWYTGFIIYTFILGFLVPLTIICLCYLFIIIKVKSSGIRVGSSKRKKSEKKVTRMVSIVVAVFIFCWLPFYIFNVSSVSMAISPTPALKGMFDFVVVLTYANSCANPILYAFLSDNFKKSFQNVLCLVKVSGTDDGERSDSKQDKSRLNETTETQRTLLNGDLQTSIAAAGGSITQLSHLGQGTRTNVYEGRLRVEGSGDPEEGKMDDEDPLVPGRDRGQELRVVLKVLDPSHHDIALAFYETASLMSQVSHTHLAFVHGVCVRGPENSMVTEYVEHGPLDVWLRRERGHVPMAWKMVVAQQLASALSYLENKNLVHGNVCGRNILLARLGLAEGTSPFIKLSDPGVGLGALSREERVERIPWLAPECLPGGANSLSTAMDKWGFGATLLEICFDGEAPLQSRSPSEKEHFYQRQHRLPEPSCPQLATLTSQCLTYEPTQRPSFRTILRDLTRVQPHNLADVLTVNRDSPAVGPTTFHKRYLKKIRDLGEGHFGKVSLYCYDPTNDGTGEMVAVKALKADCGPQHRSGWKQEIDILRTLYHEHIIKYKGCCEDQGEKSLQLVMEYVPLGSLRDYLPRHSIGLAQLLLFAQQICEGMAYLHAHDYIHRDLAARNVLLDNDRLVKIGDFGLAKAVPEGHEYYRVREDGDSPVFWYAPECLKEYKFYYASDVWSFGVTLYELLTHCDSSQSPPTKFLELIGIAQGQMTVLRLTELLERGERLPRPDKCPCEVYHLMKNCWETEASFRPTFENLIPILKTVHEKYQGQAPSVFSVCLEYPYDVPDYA

Consider `CCCc1nc2c(C)cc(-c3nc4ccccc4n3C)cc2n1Cc1ccc(-c2ccccc2C(=O)O)cc1` [telmisartan], for which, in assay [1], the “effect of antagonist on SSTR2-ARRB2 interaction signal” value was “no effect” and the “effect of antagonist on SSTR2-ARRB2 interaction signal, dose-response” value is “no effect”. Also, in assay [2], the “effect of antagonist on AGTR1-ARRB2 interaction signal” value is “selectively inhibited”. Besides, the “effect of antagonist on AGTR1-ARRB2 interaction signal, dose-response” value in assay [2] (FIG. 5B) was “selectively and completely inhibited”. The “effect of telmisartan compared to losartan on AGTR1-ARRB2 interaction” value in assay [2] (dose-response, FIG. 5B) was “stronger effect”.
As for `CCCCc1nc(Cl)c(CO)n1Cc1ccc(-c2ccccc2-c2nn[nH]n2)cc1` [losartan], in assay [1], the “effect of antagonist on SSTR2-ARRB2 interaction signal” value is “no effect” and the “effect of antagonist on SSTR2-ARRB2 interaction signal, dose-response” value is recorded as “no effect”. Also, the “effect of antagonist on AGTR1-ARRB2 interaction signal” value in assay [2] is recorded as “selectively inhibited”. For the same compound, in assay [2] (FIG. 5B), the “effect of antagonist on AGTR1-ARRB2 interaction signal, dose-response” value is “selectively and completely inhibited”.
Regarding tunicamycin, the “luciferase signal of ERN1 dimerization upon induction of ER-stress” value on ERN1 [3] (HEK293-T cells, ERN1-Tyk2(C) + ERN1-gp130, 0-0.5-1-2 μg/ml tunicamycin, FIG. 6A) was “dose-dependent signal”.
With `Cc1csc(NC(=O)CSc2nc3c(c(C(F)(F)F)c2C#N)CCC3)n1` [Irestatin 9389], the ERN1 endonuclease activity entry at ERN1 [4] is on record as “inhibit ERN1 endonuclease activity”. Besides, the “disruption of ERN1 dimerization” value on ERN1 [3] (1 μg/ml tunicamycin or vehicle (DMSO) combined with increasing doses of Irestatin 9389, FIG. 6D) was “dose-dependent disruption of ERN1 dimerization”.
